# Assay results from patent US9694016B2 (Novartis AG, priority 2013, dated 2017).
# Target: b-Raf (V600E) (Homo sapiens (Human), UniProt P15056, V600E)
# Conditions: read-out: b-Raf IC-50; AlphaScreen, 60 min pre-incubation, 3 hours reaction
# b-Raf (V600E), sequence (P15056 whole entry V600E): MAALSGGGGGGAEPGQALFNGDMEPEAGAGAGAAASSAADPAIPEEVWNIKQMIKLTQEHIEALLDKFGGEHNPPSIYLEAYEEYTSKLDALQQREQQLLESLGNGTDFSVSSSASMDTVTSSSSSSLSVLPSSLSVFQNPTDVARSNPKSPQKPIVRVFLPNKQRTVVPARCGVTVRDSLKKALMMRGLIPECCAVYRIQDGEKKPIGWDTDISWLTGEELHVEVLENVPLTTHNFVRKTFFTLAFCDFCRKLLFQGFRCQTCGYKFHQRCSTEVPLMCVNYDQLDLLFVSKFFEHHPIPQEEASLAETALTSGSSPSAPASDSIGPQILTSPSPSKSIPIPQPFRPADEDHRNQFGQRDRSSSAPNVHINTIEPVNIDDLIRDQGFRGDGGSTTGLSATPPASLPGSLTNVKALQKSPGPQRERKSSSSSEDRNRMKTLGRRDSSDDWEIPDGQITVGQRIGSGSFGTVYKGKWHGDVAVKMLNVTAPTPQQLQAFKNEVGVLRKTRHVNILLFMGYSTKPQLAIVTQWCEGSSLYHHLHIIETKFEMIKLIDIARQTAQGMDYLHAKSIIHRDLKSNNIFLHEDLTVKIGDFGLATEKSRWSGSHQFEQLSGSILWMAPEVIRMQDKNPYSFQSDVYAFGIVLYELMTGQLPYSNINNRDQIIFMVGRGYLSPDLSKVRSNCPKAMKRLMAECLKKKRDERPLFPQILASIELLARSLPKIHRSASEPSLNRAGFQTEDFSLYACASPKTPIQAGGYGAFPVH
row,IC50,Structure (SMILES)
1,11.4 nM,"Cc1ncc(NC(=O)c2ccnc(C(C)(C)C#N)c2)cc1-c1cc(N2CCOCC2)n2nccc2n1 [Example 791, 2-(2-cyanopropan-2-yl)-N-(6-methyl-5-(7-morpholinopyrazolo[1,5-a]pyrimidin-5-yl)pyridin-3-yl)isonicotinamide]"
2,4.5 nM,"Cc1ccc(NC(=O)c2ccnc(C3COC3)c2)cc1-c1cc(N2CCOCC2)c(=O)n(C)n1 [Example 648, N-(4-methyl-3-(1-methyl-5-morpholino-6-oxo-1,6-dihydropyridazin-3-yl)phenyl)-2-(oxetan-3-yl)isonicotinamide]"
3,2.1 nM,"Cc1ccc(NC(=O)c2ccnc(C(C)(C)C#N)c2)cc1-c1cc(N2CCOCC2)c(OCCO)nn1 [Example 591, 2-(2-cyanopropan-2-yl)-N-(3-(6-(2-hydroxyethoxy)-5-morpholinopyridazin-3-yl)-4-methylphenyl)isonicotinamide]"
4,5.4 nM,"COc1nnc(-c2cc(NC(=O)c3cnnc(C(C)(C)C#N)c3)ccc2C)cc1N1CCOCC1 [Example 557, 6-(2-cyanopropan-2-yl)-N-(3-(6-methoxy-5-morpholinopyridazin-3-yl)-4-methylphenyl)pyridazine-4-carboxamide]"
5,1.8 nM,"CCOc1nnc(-c2cc(NC(=O)c3ccnc(C4CC4)c3)cnc2C)cc1N1CCOCC1 [Example 612, 2-cyclopropyl-N-(5-(6-ethoxy-5-morpholinopyridazin-3-yl)-6-methylpyridin-3-yl)isonicotinamide]"
6,1 nM,"COc1nnc(-c2cc(NC(=O)c3ccnc(C(F)(F)F)c3)ccc2C)cc1N1CCOCC1 [Example 547, N-(3-(6-methoxy-5-morpholinopyridazin-3-yl)-4-methylphenyl)-2-(trifluoromethyl)isonicotinamide]"
7,22.3 nM,"Cc1ccc(NC(=O)c2ccnc(C(C)(C)C#N)c2)cc1-c1cc(N2CCOCC2)nc(N2C(=O)OC[C@@H]2C)n1 [Example 782, (S)-2-(2-cyanopropan-2-yl)-N-(4-methyl-3-(2-(4-methyl-2-oxooxazolidin-3-yl)-6-morpholinopyrimidin-4-yl)phenyl)isonicotinamide]"
8,0.3 nM,"CCOc1nnc(-c2cc(NC(=O)c3cccc(C(F)F)c3)ccc2C)cc1N1CCOCC1 [Example 561, 3-(difluoromethyl)-N-(3-(6-ethoxy-5-morpholinopyridazin-3-yl)-4-methylphenyl)benzamide]"
9,0.6 nM,"Cc1ccc(NC(=O)c2ccnc(C(C)C)c2)cc1-c1cc(N2CCOCC2)n(C)c(=O)c1 [Example 482, 2-isopropyl-N-(4-methyl-3-(1-methyl-6-morpholino-2-oxo-1,2-dihydropyridin-4-yl)phenyl)isonicotinamide]"
10,0.6 nM,"Cc1ccc(NC(=O)c2cccc(C(F)(F)F)c2)cc1-c1nc(N2CCOCC2)c2cnn(C)c2n1 [Example 840, N-(4-methyl-3-(1-methyl-4-morpholino-1H-pyrazolo[3,4-d]pyrimidin-6-yl)phenyl)-3-(trifluoromethyl)benzamide]"

row,Structure (SMILES),IC50
1,"Cc1ccc(NC(=O)c2ccnc(C(F)(F)F)c2)cc1-c1cc(N2CCOCC2)c(=O)n(C)n1 [Example 658, N-(4-methyl-3-(1-methyl-5-morpholino-6-oxo-1,6-dihydropyridazin-3-yl)phenyl)-2-(trifluoromethyl)isonicotinamide]",3.1 nM

# Same assay, conditions: read-out: b-Raf IC-50; AlphaScreen, 60 min pre-incubation, reaction 3 hours at room temperature
row,IC50,Structure (SMILES)
1,7.55 nM,"Cc1ncc(NC(=O)c2cnnc(C3(C#N)CC3)c2)cc1-c1cnc(OCC(F)F)c(N2CCOCC2)c1 [Example 936, 6-(1-cyanocyclopropyl)-N-(6′-(2,2-difluoroethoxy)-2-methyl-5′-morpholino-[3,3′-bipyridin]-5-yl)pyridazine-4-carboxamide]"
2,2.41 nM,"Cc1ccc(NC(=O)c2cnnc(C(F)(F)F)c2)cc1-c1cc(N2CCOCC2)nc(N2CC(O)C2)c1 [Example 1070, N-(3-(2-(3-hydroxyazetidin-1-yl)-6-morpholinopyridin-4-yl)-4-methylphenyl)-6-(trifluoromethyl)pyridazine-4-carboxamide]"
3,0.85 nM,"Cc1ccc(NC(=O)c2cncc(C(F)(F)F)c2)cc1-c1cc(N2CCOCC2)n(C)c(=O)c1 [Example 901, N-(4-methyl-3-(1-methyl-6-morpholino-2-oxo-1,2-dihydropyridin-4-yl)phenyl)-5-(trifluoromethyl)nicotinamide]"
4,0.85 nM,"Cc1ccc(NC(=O)c2cccc(C(F)F)c2)cc1-c1cc(N2CCOCC2)nc(N2CC(O)C2)c1 [Example 1077, 3-(difluoromethyl)-N-(3-(2-(3-hydroxyazetidin-1-yl)-6-morpholinopyridin-4-yl)-4-methylphenyl)benzamide]"
5,3.64 nM,"Cc1ccc(NC(=O)c2cc(C(C)(C)C#N)ccn2)cc1-c1cc(N2CCOCC2)c(=O)n(C)c1 [Example 903, 4-(2-cyanopropan-2-yl)-N-(4-methyl-3-(1-methyl-5-morpholino-6-oxo-1,6-dihydropyridin-3-yl)phenyl)picolinamide]"
6,12.8 nM,"Cc1ccc(NC(=O)c2ccnc(C(F)(F)F)c2)cc1-c1c(F)c(NCCO)nc(N2CCOCC2)c1F [Example 1014, N-(3-(3,5-difluoro-2-((2-hydroxyethyl)amino)-6-morpholinopyridin-4-yl)-4-methylphenyl)-2-(trifluoromethyl)isonicotinamide]"
7,2.28 nM,"Cc1ncc(NC(=O)c2cccc(C(F)(F)F)c2)cc1-c1cnc(OC[C@@H](C)O)c(N2CCOCC2)c1 [Example 984, (R)—N-(6′-(2-hydroxypropoxy)-2-methyl-5′-morpholino-[3,3′-bipyridin]-5-yl)-3-(trifluoromethyl)benzamide]"

# Same assay, conditions: read-out: b-Raf IC-50; Table 2; AlphaScreen, 3 hours reaction
row,IC50,Structure (SMILES)
1,2800 nM,"Cc1cc(C(=O)Nc2cnc(C)c(-c3cc(N4CCOCC4)c(=O)n(C)c3)c2)n(C)n1 [Example 376, N-(1′,2-dimethyl-5′-morpholino-6′-oxo-1′,6′-dihydro-[3,3′-bipyridin]-5-yl)-1,3-dimethyl-1H-pyrazole-5-carboxamide]"
2,4.5 nM,"Cc1ncc(NC(=O)c2ccnc(C(C)(C)C#N)c2)cc1-c1cnc(N(C)C)c(N2CCOCC2)c1 [Example 265, 2-(2-cyanopropan-2-yl)-N-(6′-(dimethylamino)-2-methyl-5′-morpholino-[3,3′-bipyridin]-5-yl)isonicotinamide]"
3,0.5 nM,"Cc1ccc(NC(=O)c2cnnc(C(F)(F)F)c2)cc1-c1cnc(OC2CCOCC2)c(N2CCOCC2)c1 [Example 275, N-(4-methyl-3-(5-morpholino-6-((tetrahydro-2H-pyran-4-yl)oxy)pyridin-3-yl)phenyl)-6-(trifluoromethyl)pyridazine-4-carboxamide]"
4,2.7 nM,"Cc1ccc(NC(=O)c2ccnc(C(C)C)c2)cc1-c1cc(N2CCOCC2)c(=O)n(C)c1 [Example 348, 2-isopropyl-N-(4-methyl-3-(1-methyl-5-morpholino-6-oxo-1,6-dihydropyridin-3-yl)phenyl)isonicotinamide]"
5,3.9 nM,"CCOc1ncc(-c2cc(NC(=O)c3cccc(S(C)(=O)=O)c3)cnc2C)cc1N1CCOCC1 [Example 242, N-(6′-ethoxy-2-methyl-5′-morpholino-[3,3′-bipyridin]-5-yl)-3-(methylsulfonyl)benzamide]"
6,6 nM,"Cc1ncc(NC(=O)c2ccnc(C(F)(F)F)c2)cc1-c1cnc(OC2CCOCC2)c(N2CCOCC2)c1 [Example 314, N-(2-methyl-5′-morpholino-6′-((tetrahydro-2H-pyran-4-yl)oxy)-[3,3′-bipyridin]-5-yl)-2-(trifluoromethyl)isonicotinamide]"
